Structures can show the parent of a compound that is named as a salt.
Test system: live vaccine strain (LVS) of Francisella tularensis
Assay: microbe, parasite or virus in culture
Type: cell-based
Conditions: introduction of the methyl-linked phenyl ring

CN[C@@H]1[C@H](O)[C@H](NC)[C@H]2O[C@]3(O)[C@H](O[C@@H]2[C@H]1O)O[C@H](C)C[C@@]3(O)CNCc1ccccc1 [compound 1, 3′-(R)-3′-(benzylaminomethyl)dihydrospectinomycin Trihydrochloride]
activity against Francisella tularensis LVS: well tolerated

From patent publication US10266544B2, “Aryl substituted aminomethyl spectinomycin analogs as antibacterial agents” (ST. JUDE CHILDREN'S RESEARCH HOSPITAL, INC., priority 2013, dated 2019)
